Assay results as given in patent US7612054B2, “Dibenzo[b,f]oxepine-10-carboxamides and pharmaceutical uses thereof” (Novartis AG, priority 2003, dated 2009).

| SMILES | melting point |
| --- | --- |
| CCCCNC(=O)C(C)CC(O)C(Cc1ccccc1)NC(=O)C1=Cc2ccccc2Oc2cc(Cl)ccc21 (stereo not shown) [Example 9, 7-Chloro-dibenzo[b,f]oxepine-10-carboxylic acid (1-benzyl-4-butylcarbamoyl-2-hydroxy-pentyl)-amide] | 153 to 155 °C |
| CCCCNC(=O)C(C)CC(O)C(Cc1ccccc1)NC(=O)c1cc2ccccc2c(=O)c2ccccc12 (stereo not shown) [Example 11, 5-Oxo-5H-dibenzo[a,d]cycloheptene-10-carboxylic acid (1-benzyl-4-butylcarbamoyl-2-hydroxy-pentyl)-amide] | 229 to 230 °C |
| CCCCNC(=O)C(C)CC(O)C(Cc1cc(F)cc(F)c1)NC(=O)C1=Cc2ccccc2Oc2ccccc21 (stereo not shown) [Example 16, Dibenzo[b,f]oxepine-10-carboxylic acid [4-butylcarbamoyl-1-(3,5-difluorobenzyl)-2-hydroxy-pentyl]-amide] | 174 to 176 °C |
| CCCCNC(=O)C(C)CC(O)C(Cc1cccc(F)c1)NC(=O)C1=Cc2ccccc2Oc2ccccc21 (stereo not shown) [Example 17, Dibenzo[b,f]oxepine-10-carboxylic acid [4-butylcarbamoyl-1-(3-fluorobenzyl)-2-hydroxy-pentyl]-amide] | 204 to 207 °C |
